Measurements published in US12552753B2, “Methods and compositions for targeting Tregs using CCR8 inhibitors” (Nanjing Immunophage Biomedical Co., Ltd., priority 2020, dated 2026).
pIC50: −log10 of the molar value. Where a name gives a salt, the structure may show the parent alone.

Biological target: CCR8 (Homo sapiens, UniProt P51685)
Assay: Tango assay (Tango-CCR8-Gal4-CHO-K1 cells, CCL1-stimulated, ONE-Glo luminescence)
Details: Tango Assay IC50, Inhibition of CCR8 Tango cell in vitro

CCR8, sequence (P51685 whole entry, the tested form may be a part): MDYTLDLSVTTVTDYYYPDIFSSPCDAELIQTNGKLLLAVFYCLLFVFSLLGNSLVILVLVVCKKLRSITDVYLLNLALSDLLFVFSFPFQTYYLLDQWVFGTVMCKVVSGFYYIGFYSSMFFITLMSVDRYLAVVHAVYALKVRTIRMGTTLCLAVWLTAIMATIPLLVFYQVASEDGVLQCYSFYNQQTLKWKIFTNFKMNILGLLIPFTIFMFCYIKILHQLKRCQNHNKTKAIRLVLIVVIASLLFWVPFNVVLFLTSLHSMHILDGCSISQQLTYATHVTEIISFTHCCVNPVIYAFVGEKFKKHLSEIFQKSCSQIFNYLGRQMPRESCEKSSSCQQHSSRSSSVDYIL

pIC50	Structure (SMILES)
6.36	Cc1ccccc1C(=O)Nc1ncc(S(=O)(=O)N[C@H](C)C2CCNCC2)cc1C [Compound 199A, (R)-2-methyl-N-(3-methyl-5-(N-(1-(piperidin-4-yl)ethyl)sulfamoyl)pyridin-2-yl)benzamide hydrochloride]
7.40	Cc1cc(S(=O)(=O)N[C@H](C)C2CCNCC2)ccc1NC(=O)Cc1ccccc1 [Compound 207A, (R)-N-(2-methyl-4-(N-(1-(piperidin-4-yl)ethyl)sulfamoyl)phenyl)-2-phenylacetamide hydrochloride]
7.26	Cc1cc(S(=O)(=O)N[C@H](C)C2CCNCC2)ccc1NC(=O)C1CCCCC1 [Compound 208A, (R)-N-(2-methyl-4-(N-(1-(piperidin-4-yl)ethyl)sulfamoyl)phenyl) cyclohexanecarboxamide hydrochloride]
5.96	Cc1cc(S(=O)(=O)N[C@H](C)C2CCNCC2)ccc1NC(=O)C(C)(C)C [Compound 209A, (R)-N-(2-methyl-4-(N-(1-(piperidin-4-yl)ethyl)sulfamoyl)phenyl)pivalamide hydrochloride]

More lines, now with the values behind:

Structure (SMILES)	pIC50
Cc1ccccc1C(=O)Nc1ccc(S(=O)(=O)N[C@H](C)C2CCN(C(=O)OC(C)(C)C)CC2)cc1C#N [Compound 193, (R)-tert-butyl 4-(1-(3-cyano-4-(2-methylbenzamido)phenylsulfonamido)ethyl) piperidine-1-carboxylate]	< 5.00
Cc1ccccc1C(=O)Nc1ccc(S(=O)(=O)N[C@H](C)C2CCNCC2)cc1C(N)=O [Compound 194, (R)-N-(2-carbamoyl-4-(N-(1-(piperidin-4-yl)ethyl)sulfamoyl)phenyl)-2-methylbenzamide]	< 5.00
Cc1ccccc1C(=O)Nc1ccc(S(=O)(=O)N[C@H](C)C2CCNCC2)cc1C#N [Compound 195, (R)-N-(2-cyano-4-(N-(1-(piperidin-4-yl)ethyl)sulfamoyl)phenyl)-2-methylbenzamide]	7.64
CCc1cc(S(=O)(=O)N[C@H](C)C2CCNCC2)ccc1NC(=O)c1ccccc1C [Compound 196, (R)-N-(2-ethyl-4-(N-(1-(piperidin-4-yl)ethyl)sulfamoyl)phenyl)-2-methylbenzamide]	7.74
Cc1ccccc1C(=O)Nc1ccc(S(=O)(=O)N[C@H](C)C2CCNCC2)cc1C(C)C [Compound 197A, (R)-N-(2-isopropyl-4-(N-(1-(piperidin-4-yl)ethyl)sulfamoyl)phenyl)-2-methylbenzamide hydrochloride]	6.94
Cc1ccccc1C(=O)Nc1ccc(S(=O)(=O)N[C@H](C)C2CCNCC2)cc1C1CC1 [Compound 198, (R)-N-(2-cyclopropyl-4-(N-(1-(piperidin-4-yl)ethyl)sulfamoyl)phenyl)-2-methylbenzamide]	7.59
Cc1cc(S(=O)(=O)N[C@H](C)C2CCN(C(C)C)CC2)ccc1NC(=O)c1ccccc1C [Compound 200, (R)-N-(4-(N-(1-(1-isopropylpiperidin-4-yl)ethyl)sulfamoyl)-2-methylphenyl)-2-methylbenzamide]	7.82
COCCN1CCC([C@@H](C)NS(=O)(=O)c2ccc(NC(=O)c3ccccc3C)c(C)c2)CC1 [Compound 202, (R)-N-(4-(N-(1-(1-(2-methoxyethyl)piperidin-4-yl)ethyl)sulfamoyl)-2-methylphenyl)-2-methylbenzamide]	7.22
Cc1cc(S(=O)(=O)N[C@H](C)C2CCN(CCO)CC2)ccc1NC(=O)c1ccccc1C [Compound 205, (R)-N-(4-(N-(1-(1-(2-hydroxyethyl)piperidin-4-yl)ethyl)sulfamoyl)-2-methylphenyl)-2-methylbenzamide]	7.39
Cc1cc(S(=O)(=O)N[C@H](C)C2CCN(CC(F)(F)F)CC2)ccc1NC(=O)c1ccccc1C [Compound 206, (R)-2-methyl-N-(2-methyl-4-(N-(1-(1-(2,2,2-trifluoroethyl)piperidin-4-yl)ethyl)sulfamoyl)phenyl)benzamide]	7.21
